{
  "source": "paper PMC10171913",
  "about": "(Journal of the American Chemical Society, 2022)",
  "tested_on": "tqq cluster of S. suis",
  "assay": "High-throughput elicitor screening",
  "type": "cell-based, Streptococcus suis",
  "conditions": "for elicitation of threoglucin E: 2D slice from the 3D map, abundance of threoglucin E across all 442 elicitors, Figure 2B; for elicited features in HiTES 3D difference map: ~442-member human endogenous metabolite library, UPLC-Qtof-MS, Figure 2A",
  "data": [
    {"smiles": "c1cncc([C@@H]2CCCCN2)c1", "note": "[anabasine]", "values": [
      {"measurement": "elicitation of threoglucin E", "result": "best elicitors"},
      {"measurement": "elicited features in HiTES 3D difference map", "result": "elicited peaks"}
    ]},
    {"smiles": "O=C(O)c1cccnc1", "note": "[niacin]", "values": [
      {"measurement": "elicitation of threoglucin E", "result": "best elicitors"},
      {"measurement": "elicited features in HiTES 3D difference map", "result": "elicited peaks"}
    ]},
    {"smiles": "NC(=O)c1cccnc1", "note": "[nicotinamide]", "values": [
      {"measurement": "elicited features in HiTES 3D difference map", "result": "elicited peaks"}
    ]}
  ]
}
